Source: patent US7001921B1, “Cell adhesion inhibitors” (Biogen Idec MA Inc., priority 1995, dated 2006)
pIC50: −log10 of the molar value.

Biological target: T1, VLA4 (Homo sapiens, UniProt P05556+P13612)
T1 construct: endogenous in cells; host or cells: Ramos cells
Experiment: Inhibition of VLA4-dependent adhesion to BSA-CS1 (labelled Ramos cells)
Assay type: cell-based
Conditions: binding of BCECF-AM labelled Ramos cells to CS1 peptide-coated wells, 2 mM MnCl2, 30 minutes at room temperature; IC50 range
Outline: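 Ramos cells labelled with 2 μM BCECF-AM, with 2 mM MnCl2 added to upregulate VLA4, were incubated with test compound (final 0.01 nM–10 μM, triplicate) on BSA-CS1-coated wells for 30 min at room temperature in TRIS buffer pH 7.4. After washing, bound fluorescence was read, with uncoated wells giving non-specific binding.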

T1 sequence (P13612 34-1032): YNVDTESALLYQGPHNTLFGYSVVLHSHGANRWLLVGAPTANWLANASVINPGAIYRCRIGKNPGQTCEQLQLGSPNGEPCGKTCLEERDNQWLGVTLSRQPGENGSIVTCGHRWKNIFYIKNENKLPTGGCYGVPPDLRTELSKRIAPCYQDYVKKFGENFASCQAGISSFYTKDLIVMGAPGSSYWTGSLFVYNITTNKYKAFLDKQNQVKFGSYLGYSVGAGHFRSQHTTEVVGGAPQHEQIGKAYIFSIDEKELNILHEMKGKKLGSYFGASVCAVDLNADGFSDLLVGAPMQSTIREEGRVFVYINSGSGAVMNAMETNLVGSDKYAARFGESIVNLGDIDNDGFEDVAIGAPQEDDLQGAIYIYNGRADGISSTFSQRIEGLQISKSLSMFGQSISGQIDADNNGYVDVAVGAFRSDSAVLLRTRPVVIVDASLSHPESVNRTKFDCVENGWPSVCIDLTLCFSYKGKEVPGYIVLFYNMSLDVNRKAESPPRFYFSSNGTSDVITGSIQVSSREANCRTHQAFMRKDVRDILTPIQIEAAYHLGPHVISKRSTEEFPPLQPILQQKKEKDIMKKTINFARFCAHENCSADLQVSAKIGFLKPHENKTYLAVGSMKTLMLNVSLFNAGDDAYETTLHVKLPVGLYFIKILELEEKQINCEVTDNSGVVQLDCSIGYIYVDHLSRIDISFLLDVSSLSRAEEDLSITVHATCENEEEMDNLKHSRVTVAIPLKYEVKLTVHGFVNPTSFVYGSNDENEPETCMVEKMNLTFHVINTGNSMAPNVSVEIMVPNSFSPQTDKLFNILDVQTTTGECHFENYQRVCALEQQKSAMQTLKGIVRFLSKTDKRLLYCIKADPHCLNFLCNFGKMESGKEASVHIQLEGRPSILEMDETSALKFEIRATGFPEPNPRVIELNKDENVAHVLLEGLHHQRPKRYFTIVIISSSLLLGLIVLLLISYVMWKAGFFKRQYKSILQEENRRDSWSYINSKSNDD
T1 sequence (P05556 21-798): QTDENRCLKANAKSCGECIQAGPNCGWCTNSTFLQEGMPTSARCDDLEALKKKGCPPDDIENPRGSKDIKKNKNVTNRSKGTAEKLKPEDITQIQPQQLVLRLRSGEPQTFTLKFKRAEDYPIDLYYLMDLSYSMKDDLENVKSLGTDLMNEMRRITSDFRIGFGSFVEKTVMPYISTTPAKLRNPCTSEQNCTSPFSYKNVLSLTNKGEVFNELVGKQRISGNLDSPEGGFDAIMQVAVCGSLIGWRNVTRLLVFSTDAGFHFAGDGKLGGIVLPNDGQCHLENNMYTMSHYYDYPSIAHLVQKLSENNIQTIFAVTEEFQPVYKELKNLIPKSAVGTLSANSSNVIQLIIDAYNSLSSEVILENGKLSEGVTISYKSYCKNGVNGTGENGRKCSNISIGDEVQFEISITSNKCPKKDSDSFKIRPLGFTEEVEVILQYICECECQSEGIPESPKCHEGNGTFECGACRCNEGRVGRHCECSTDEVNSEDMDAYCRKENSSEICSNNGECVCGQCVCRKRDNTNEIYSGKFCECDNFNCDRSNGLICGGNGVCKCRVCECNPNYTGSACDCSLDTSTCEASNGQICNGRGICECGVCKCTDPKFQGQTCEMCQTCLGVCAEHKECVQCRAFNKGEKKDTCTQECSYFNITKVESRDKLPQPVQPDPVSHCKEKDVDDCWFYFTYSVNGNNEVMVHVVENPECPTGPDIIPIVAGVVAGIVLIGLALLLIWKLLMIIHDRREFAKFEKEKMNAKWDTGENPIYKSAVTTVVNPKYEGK

Compound	pIC50
O=C(O)CC(NC(=O)C(CC(=O)N1CCOCC1)NC(=O)Cc1ccc(NC(=O)Nc2ccccc2)cc1)c1ccc2c(c1)OCO2 (stereo not drawn) [compound 1170]	5.00 to 7.30
COc1ccc(C(CC(=O)O)NC(=O)C(CC(C)C)NC(=O)Cc2ccc(O)cc2)cc1 (stereo not drawn) [compound 1173]	5.00 to 7.30
COc1ccc(C(CC(=O)O)NC(=O)C(CCSC)NC(=O)Cc2ccc(O)cc2)cc1 (stereo not drawn) [compound 1174]	5.00 to 7.30
COc1ccc(C(CC(=O)O)NC(=O)C(CCSC)NC(=O)Cc2ccccc2)cc1 (stereo not drawn) [compound 1175]	5.00 to 7.30
O=C(O)CC(NC(=O)C(CC(=O)N1CCSCC1)NC(=O)Cc1ccc(NC(=O)Nc2ccccc2)cc1)c1ccc2c(c1)OCO2 (stereo not drawn) [compound 1176]	5.00 to 7.30
C#CCN(C)C(=O)CC(NC(=O)Cc1ccc(NC(=O)Nc2ccccc2)cc1)C(=O)NC(CC(=O)O)c1ccc2c(c1)OCO2 (stereo not drawn) [compound 1177]	5.00 to 7.30
COc1ccc(C(CC(=O)O)NC(=O)C(CC(C)C)NC(=O)Cc2ccccc2)cc1 (stereo not drawn) [compound 1178]	5.00 to 7.30
Cc1ccccc1NC(=O)Nc1ccc(CC(=O)NC(CC(C)C)C(=O)NC(CC(=O)O)c2ccc3c(c2)OCO3)cc1 (stereo not drawn) [compound 1179]	> 7.30
COc1ccc(C(CC(=O)O)NC(=O)C(CC(C)C)NC(=O)Cc2ccc(NC(=O)Nc3nccs3)cc2)cc1 (stereo not drawn) [compound 1180]	5.00 to 7.30
CC(C)CC(NC(=O)Cc1ccc(NC(=O)Nc2cccc(Cl)c2)cc1)C(=O)NC(CC(=O)O)c1ccc2c(c1)OCO2 (stereo not drawn) [compound 1181]	5.00 to 7.30
CC(C)CC(NC(=O)Cc1ccc(NC(=O)Nc2ccncc2)cc1)C(=O)NC(CC(=O)O)c1ccc2c(c1)OCO2 (stereo not drawn) [compound 1182]	5.00 to 7.30
CC(C)CC(NC(=O)Cc1ccc(NC(=O)Nc2ccccc2Cl)cc1)C(=O)NC(CC(=O)O)c1ccc2c(c1)OCO2 (stereo not drawn) [compound 1185]	> 7.30
CC(C)CC(NC(=O)CCCNC(=O)Nc1ccccc1)C(=O)NC(CC(=O)O)c1ccccc1 (stereo not drawn) [compound 1187]	< 5.00
CC(C)CC(NC(=O)C1(c2ccccc2)CC1)C(=O)NC(CC(=O)O)c1ccc2c(c1)OCO2 (stereo not drawn) [compound 1188]	< 5.00
CC(C)CC(NC(=O)C1CCc2ccccc21)C(=O)NC(CC(=O)O)c1ccccc1 (stereo not drawn) [compound 1189]	< 5.00
COc1ccc(C(CC(=O)O)NC(=O)C(CC(C)C)NC(=O)Cc2ccc(NC(=O)Nc3ccccc3C)cc2)cc1 (stereo not drawn) [compound 1190]	> 7.30
O=C(O)CC(NC(=O)C(CCN1CCOCC1)NC(=O)Cc1ccc(NC(=O)Nc2ccccc2)cc1)c1ccc2c(c1)OCO2 (stereo not drawn) [compound 1191]	5.00 to 7.30
COc1ccc(C(CC(=O)O)NC(=O)C(CC(C)C)NC(=O)Cc2ccc(NC(=O)Nc3ccccc3OC)cc2)cc1 (stereo not drawn) [compound 1192]	> 7.30
COc1ccc(C(CC(=O)O)NC(=O)C(CC(C)C)N(C)C(=O)Cc2ccc(NC(=O)Nc3ccccc3)cc2)cc1 (stereo not drawn) [compound 1193]	5.00 to 7.30
COc1ccc(C(CC(=O)O)NC(=O)C(CC(C)C)NC(=O)Cc2ccc(NC(=O)Nc3ccccn3)cc2)cc1 (stereo not drawn) [compound 1194]	5.00 to 7.30
COc1ccc(C(CC(=O)O)NC(=O)C(CC(C)C)NC(=O)Cc2ccc(NC(=O)Nc3ccccc3)cc2)cc1OC (stereo not drawn) [compound 1196]	> 7.30
CC(C)CC(NC(=O)Cc1ccc(NC(=O)N2CCOCC2)cc1)C(=O)NC(CC(=O)O)c1ccc2c(c1)OCO2 (stereo not drawn) [compound 1198]	< 5.00
COc1ccc(C(CC(=O)O)NC(=O)C(CC[S+](C)[O-])NC(=O)Cc2ccc(NC(=O)Nc3ccccc3)cc2)cc1 (stereo not drawn) [compound 1199]	5.00 to 7.30
CCc1ccccc1NC(=O)Nc1ccc(CC(=O)NC(CC(C)C)C(=O)NC(CC(=O)O)c2ccc3c(c2)OCO3)cc1 (stereo not drawn) [compound 1200]	5.00 to 7.30
CC(C)CC(NC(=O)Cc1ccc(NC(=O)Nc2ccccc2[N+](=O)[O-])cc1)C(=O)NC(CC(=O)O)c1ccc2c(c1)OCO2 (stereo not drawn) [compound 1201]	5.00 to 7.30
CC(C)CC(NC(=O)Cc1ccc(NC(=O)Nc2ccccc2C(C)C)cc1)C(=O)NC(CC(=O)O)c1ccc2c(c1)OCO2 (stereo not drawn) [compound 1206]	> 7.30

Compound	pIC50
COc1ccc(C(CC(=O)O)NC(=O)C(CC(C)C)NC(=O)Cc2ccc(NC(=O)Nc3ccccc3C(C)C)cc2)cc1 (stereo not drawn) [compound 1207]	< 5.00
CCc1ccccc1NC(=O)Nc1ccc(CC(=O)NC(CC(C)C)C(=O)NC(CC(=O)O)c2ccc(OC)cc2)cc1 (stereo not drawn) [compound 1208]	5.00 to 7.30
CC(C)CC(NC(=O)Cc1ccc(NC(=O)Nc2ccccc2C(C)(C)C)cc1)C(=O)NC(CC(=O)O)c1ccc2c(c1)OCO2 (stereo not drawn) [compound 1209]	< 5.00
Cc1ccccc1NC(=O)Nc1ccc(CC(=O)NC(CC(C)C)C(=O)NC(CC(=O)O)c2ccc3c(c2)OCCO3)cc1 (stereo not drawn) [compound 1210]	> 7.30
CN(C)C(=O)CC(NC(=O)Cc1ccc(NC(=O)Nc2ccccc2)cc1)C(=O)NC(CC(=O)O)c1ccc2c(c1)OCO2 (stereo not drawn) [compound 1214]	5.00 to 7.30
CN(C)CCC(NC(=O)Cc1ccc(NC(=O)Nc2ccccc2)cc1)C(=O)NC(CC(=O)O)c1ccc2c(c1)OCO2 (stereo not drawn) [compound 1215]	< 5.00
O=C(O)CC(NC(=O)C(CCC(=O)N1CCOCC1)NC(=O)Cc1ccc(NC(=O)Nc2ccccc2)cc1)c1ccc2c(c1)OCO2 (stereo not drawn) [compound 1216]	5.00 to 7.30
COc1ccc(C(CC(=O)O)NC(=O)C(CCCCNC(=O)OCc2ccccc2)NC(=O)Cc2ccc(NC(=O)Nc3ccccc3C)cc2)cc1OC (stereo not drawn) [compound 1217]	> 7.30
COc1ccc(C(CC(=O)O)NC(=O)C(CC(C)C)NC(=O)Cc2ccc(NC(=O)Nc3ccccn3)cc2)cc1OC (stereo not drawn) [compound 1218]	5.00 to 7.30
COc1ccc(C(CC(=O)O)NC(=O)C(CC(C)C)NC(=O)Cc2ccc(NC(=O)Nc3cccnc3)cc2)cc1OC (stereo not drawn) [compound 1219]	5.00 to 7.30
COc1ccc(C(CC(=O)O)NC(=O)C(CC(C)C)NC(=O)Cc2ccc(NC(=O)Nc3cccnc3C)cc2)cc1 (stereo not drawn) [compound 1220]	5.00 to 7.30
COc1cc(CC(=O)NC(CC(C)C)C(=O)NC(CC(=O)O)c2ccc3c(c2)OCO3)ccc1NC(=O)Nc1ccccc1C (stereo not drawn) [compound 1221]	> 7.30
COc1cc(CC(=O)NC(CC(C)C)C(=O)NC(CC(=O)O)c2ccc3c(c2)OCO3)ccc1NC(=O)Nc1ccccc1Cl (stereo not drawn) [compound 1222]	> 7.30
COc1ccc(C(CC(=O)O)NC(=O)C(CCSC)NC(=O)Cc2ccc(NC(=O)Nc3ccccc3C)cc2)cc1OC (stereo not drawn) [compound 1224]	> 7.30
COc1ccc(C(CC(=O)O)NC(=O)C(CCSC)NC(=O)Cc2ccc(NC(=O)Nc3ccccc3C)cc2)cc1 (stereo not drawn) [compound 1238]	> 7.30
Cc1ccccc1NC(=O)Nc1ccc(CC(=O)NC(CCS(C)(=O)=O)C(=O)NC(CC(=O)O)c2ccc3c(c2)OCO3)cc1 (stereo not drawn) [compound 1245]	> 7.30
Cc1ccccc1NC(=O)Nc1ccc(CC(=O)NC(CC(C)C)C(=O)NC(CC(=O)O)c2ccc(F)cc2)cc1 (stereo not drawn) [compound 1248]	> 7.30
CC(=O)NCCCCC(NC(=O)Cc1ccc(NC(=O)Nc2ccccc2C)cc1)C(=O)NC(CC(=O)O)c1ccc2c(c1)OCO2 (stereo not drawn) [compound 1270]	> 7.30
Cc1ccccc1NC(=O)Nc1ccc(CC(=O)NC(CC(C)C)C(=O)NC(CC(=O)O)c2ccc3c(c2)OCO3)cc1 (stereo not drawn) [compound 1282]	> 7.30
Cc1ccccc1NC(=O)Nc1ccc(CC(=O)NC(CCCCNS(C)(=O)=O)C(=O)NC(CC(=O)O)c2ccc3c(c2)OCO3)cc1 (stereo not drawn) [compound 1294]	> 7.30
Cc1ccccc1NC(=O)Nc1ccc(CC(=O)NC(CC(C)C)C(=O)NC(CC(=O)O)c2ccc(C(=O)O)cc2)cc1 (stereo not drawn) [compound 1321]	> 7.30
COc1nc(CC(=O)NC(CC(C)C)C(=O)NC(CC(=O)O)c2ccc3c(c2)OCO3)ccc1NC(=O)Nc1ccccc1C (stereo not drawn) [compound 1336]	> 7.30
CN=C(Nc1ccccc1)Nc1ccc(CC(=O)NC(CC(C)C)C(=O)NC(CC(=O)O)c2ccc3c(c2)OCO3)cc1 (stereo not drawn) [compound 1380]	5.00 to 7.30
COC(=O)c1ccc(C(CC(=O)O)NC(=O)C(CCCCNS(C)(=O)=O)NC(=O)Cc2ccc(NC(=O)Nc3ccccc3C)cc2)cc1 (stereo not drawn) [compound 1382]	> 7.30
CC(C)CC(NC(=O)Cc1ccc(Nc2ncc[nH]2)cc1)C(=O)NC(CC(=O)O)c1ccc2c(c1)OCO2 (stereo not drawn) [compound 1390]	5.00 to 7.30
